Source: patent publication US20230085307A1, “PYRIDAZINONE COMPOUND AND HERBICIDE” (NISSAN CHEMICAL CORPORATION, priority 2019, published 2023)

How the values were obtained:
oval-leafed pondweed [1] = experiment: Test Example 1: herbicidal activity, application before weed generation under submerged conditions (Table 16, symbol C); type: in vivo, oval-leafed pondweed (Monochoria vaginalis); details: amount of applied herbicide 320 g/ha
Method in brief: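 Alluvial soil was flooded to 4 cm depth, weed seeds were sown mixed and 2.5-leaf rice seedlings were transplanted. On sowing day, the compound's emulsion, diluted in water to a set dose, was applied to the water surface. Plants grew at 25–30 °C and were scored 0–5 after three weeks.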

oval-leafed pondweed [2] = experiment: Test Example 2: herbicidal activity, application during weed generation under submerged conditions (Table 17, symbol C); type: in vivo, oval-leafed pondweed (Monochoria vaginalis); details: for herbicidal effect rating, C: oval-leafed pondweed: AAH 320 g/ha, application during weed generation, submerged conditions
Method in brief: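 In this pot test, flooded alluvial soil (water depth 4 cm) holds all three species sown as a mixture. Once seedlings have one to two leaves, the compound's emulsion, thinned with water to the intended dose, is poured on the water; grading follows after three weeks on the earlier criteria.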

Chinese sprangletop = experiment: Test Example 3: herbicidal effect by foliage application, Wagner pot (Table 18, symbol D); type: in vivo, chinese sprangletop (Leptochloa chinensis); details: for herbicidal effect on Chinese sprangletop (D): 320 g/ha
Method in brief: (§1)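 Plants were sown in alluvial soil held under 0.1–0.5 cm standing water and grown 14 days in a greenhouse at 25–30 °C. An emulsifiable formulation, water-diluted to the set dose, was then sprayed onto the foliage, and effects were scored three weeks later using previously defined criteria.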

rice flat sedge = experiment: Test Example 3: herbicidal effect by foliage application, Wagner pot (Table 18, symbol E); type: in vivo, rice flat sedge (Cyperus iria); details: for herbicidal effect on rice flat sedge (E): 320 g/ha
Method in brief: as §1

southern crabgrass [3] = experiment: Test Example 4: herbicidal effect by soil treatment (Table 19, symbol F); type: in vivo, southern crabgrass (Digitaria ciliaris); details: amount of applied herbicide 320 g/ha
Method in brief: (§2)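 Three weeks of greenhouse growth at 25° C. to 30° C. followed a uniform surface spray of water-diluted emulsion at a predetermined herbicide amount. Seeds had been sown beforehand under about 1.5 cm of sterilized diluvial soil. Grading followed criteria set out in an earlier test.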

windgrass [4] = experiment: Test Example 4: herbicidal effect by soil treatment (Table 19, symbol L); type: in vivo, windgrass (Apera spica-venti); details: amount of applied herbicide 320 g/ha
Method in brief: as §2

velvetleaf = experiment: Test Example 4: herbicidal effect by soil treatment (Table 19, symbol M); type: in vivo, velvetleaf (Abutilon theophrasti); details: amount of applied herbicide 320 g/ha
Method in brief: as §2

redroot pigweed = experiment: Test Example 4: herbicidal effect by soil treatment (Table 19, symbol N); type: in vivo, redroot pigweed (Amaranthus retroflexus); details: amount of applied herbicide 320 g/ha
Method in brief: as §2

lambsquarters [5] = experiment: Test Example 4: herbicidal effect by soil treatment (Table 19, symbol O); type: in vivo, lambsquarters (Chenopodium album); details: amount of applied herbicide 320 g/ha
Method in brief: as §2

southern crabgrass [6] = experiment: Test Example 5: herbicidal effect by foliage application, plastic box (Table 20, symbol F); type: in vivo, southern crabgrass (Digitaria ciliaris); details: 320 g/ha; for F: southern crabgrass, herbicidal effect grade: three weeks after application
Method in brief: (§3)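 Plants sown in sterilized diluvial soil and grown 14 days in a greenhouse at 25° C to 30° C, then sprayed on the foliage with the compound's emulsion diluted in water to a predetermined herbicide amount. Injury to weeds and crops scored three weeks after application on a visual rating scale.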

green foxtail = experiment: Test Example 5: herbicidal effect by foliage application, plastic box (Table 20, symbol G); type: in vivo, green foxtail (Setaria viridis); details: 320 g/ha; for G: green foxtail, herbicidal effect grade: three weeks after application
Method in brief: as §3

barnyard grass = experiment: Test Example 5: herbicidal effect by foliage application, plastic box (Table 20, symbol H); type: in vivo, barnyard grass (Echinochloa crus-galli); details: 320 g/ha; for H: barnyard grass, herbicidal effect grade: three weeks after application
Method in brief: as §3

windgrass [7] = experiment: Test Example 5: herbicidal effect by foliage application, plastic box (Table 20, symbol L); type: in vivo, windgrass (Apera spica-venti); details: 320 g/ha; for L: windgrass, herbicidal effect grade: three weeks after application
Method in brief: as §3

lambsquarters [8] = experiment: Test Example 5: herbicidal effect by foliage application, plastic box (Table 20, symbol O); type: in vivo, lambsquarters (Chenopodium album); details: 320 g/ha; for O: lambsquarters, herbicidal effect grade: three weeks after application
Method in brief: as §3

chickweed = experiment: Test Example 5: herbicidal effect by foliage application, plastic box (Table 20, symbol P); type: in vivo, common chickweed (Stellaria media); details: 320 g/ha; for P: chickweed, herbicidal effect grade: three weeks after application
Method in brief: as §3

persian speedwell = experiment: Test Example 5: herbicidal effect by foliage application, plastic box (Table 20, symbol R); type: in vivo, Persian speedwell (Veronica persica); details: 320 g/ha; for R: persian speedwell, herbicidal effect grade: three weeks after application
Method in brief: as §3

[9] = amount of applied herbicide 320 g/ha
[10] = foliage application, evaluated 3 weeks after application
[11] = foliage application after 14-day growth, evaluated three weeks after application

SMILES | Herbicidal effect, C: oval-leafed pondweed (oval-leafed pondweed [1]) | F: southern crabgrass, herbicidal effect grade (southern crabgrass [3]) | L: windgrass, herbicidal effect grade (windgrass [4]) | M: velvetleaf, herbicidal effect grade (velvetleaf) | N: redroot pigweed, herbicidal effect grade (redroot pigweed) | O: lambsquarters, herbicidal effect grade (lambsquarters [5]) | herbicidal effect rating, C: oval-leafed pondweed (oval-leafed pondweed [2]) | herbicidal effect on Chinese sprangletop (D) (Chinese sprangletop) | herbicidal effect on rice flat sedge (E) (rice flat sedge) | F: southern crabgrass, herbicidal effect grade (southern crabgrass [6]; foliage application) | G: green foxtail, herbicidal effect grade (green foxtail; foliage application) | H: barnyard grass, herbicidal effect grade (barnyard grass; foliage application) | L: windgrass, herbicidal effect grade (windgrass [7]; foliage application) | O: lambsquarters, herbicidal effect grade (lambsquarters [8]; foliage application) | P: chickweed, herbicidal effect grade (chickweed; foliage application) | R: persian speedwell, herbicidal effect grade (persian speedwell; foliage application) | other results
CCSc1ccc(-c2oc3ccc(C)cc3c2-c2c(O)c(C)nn(C)c2=O)cc1 [9-057] | 4 (Herbicidal rate of 70% or more and less than 90%) | 5 (Herbicidal rate of 90% or more (almost completely withered)) | 0 (Herbicidal rate of 5% or less (almost no effect)) | 4 (Herbicidal rate of 70% or more and less than 90%) | 5 (Herbicidal rate of 90% or more (almost completely withered)) | 5 (Herbicidal rate of 90% or more (almost completely withered)) |  |  |  |  |  |  |  |  |  |  | herbicidal effect grade, C: oval-leafed pondweed (oval-leafed pondweed [2]; application during weed generation under submerged conditions, amount of applied herbicide 320 g/ha): 4 (Herbicidal rate of 70% or more and less than 90%); Herbicidal effect on D (Chinese sprangletop), foliage application (Chinese sprangletop; [9]): 3 (Herbicidal rate of 40% or more and less than 70%); Herbicidal effect on E (rice flat sedge), foliage application (rice flat sedge; [9]): 5 (Herbicidal rate of 90% or more (almost completely withered)); F (southern crabgrass) herbicidal effect grade (southern crabgrass [6]; [10]): 5 (Herbicidal rate of 90% or more (almost completely withered)); G (green foxtail) herbicidal effect grade (green foxtail; [10]): 5 (Herbicidal rate of 90% or more (almost completely withered)); H (barnyard grass) herbicidal effect grade (barnyard grass; [10]): 3 (Herbicidal rate of 40% or more and less than 70%); L (windgrass) herbicidal effect grade (windgrass [7]; [10]): 3 (Herbicidal rate of 40% or more and less than 70%); O (lambsquarters) herbicidal effect grade (lambsquarters [8]; [10]): 5 (Herbicidal rate of 90% or more (almost completely withered)); P (chickweed) herbicidal effect grade (chickweed; [10]): 5 (Herbicidal rate of 90% or more (almost completely withered)); R (persian speedwell) herbicidal effect grade (persian speedwell; [10]): 5 (Herbicidal rate of 90% or more (almost completely withered))
COCCOc1ccc2c(-c3c(O)c(C)nn(C)c3=O)c(-c3ccccc3OC)sc2c1 [3-121] | 5 (Herbicidal rate of 90% or more (almost completely withered)) | 5 (Herbicidal rate of 90% or more (almost completely withered)) | 5 (Herbicidal rate of 90% or more (almost completely withered)) | 5 (Herbicidal rate of 90% or more (almost completely withered)) | 5 (Herbicidal rate of 90% or more (almost completely withered)) | 5 (Herbicidal rate of 90% or more (almost completely withered)) | 3 (Herbicidal rate of 40% or more and less than 70%) | 4 (Herbicidal rate of 70% or more and less than 90%) | 5 (Herbicidal rate of 90% or more (almost completely withered)) | 5 (Herbicidal rate of 90% or more (almost completely withered)) | 5 (Herbicidal rate of 90% or more (almost completely withered)) | 5 (Herbicidal rate of 90% or more (almost completely withered)) | 5 (Herbicidal rate of 90% or more (almost completely withered)) | 5 (Herbicidal rate of 90% or more (almost completely withered)) | 5 (Herbicidal rate of 90% or more (almost completely withered)) | 5 (Herbicidal rate of 90% or more (almost completely withered)) | 
CCCCCOc1ccc2c(-c3c(O)c(C)nn(C)c3=O)c(-c3ccccc3OC)sc2c1 [3-108] | 5 (Herbicidal rate of 90% or more (almost completely withered)) | 0 (Herbicidal rate of 5% or less (almost no effect)) | 0 (Herbicidal rate of 5% or less (almost no effect)) | 0 (Herbicidal rate of 5% or less (almost no effect)) | 4 (Herbicidal rate of 70% or more and less than 90%) | 4 (Herbicidal rate of 70% or more and less than 90%) | 0 (Herbicidal rate of 5% or less (almost no effect)) | 2 (Herbicidal rate of 20% or more and less than 40%) | 1 (Herbicidal rate of 5% or more and less than 20%) | 0 (Herbicidal rate of 5% or less (almost no effect)) | 3 (Herbicidal rate of 40% or more and less than 70%) | 0 (Herbicidal rate of 5% or less (almost no effect)) | 0 (Herbicidal rate of 5% or less (almost no effect)) | 4 (Herbicidal rate of 70% or more and less than 90%) | 3 (Herbicidal rate of 40% or more and less than 70%) | 4 (Herbicidal rate of 70% or more and less than 90%) | 
CCCC(=O)Oc1c(C)nn(C)c(=O)c1-c1c(-c2ccc(F)cc2OCC)sc2c(Cl)cccc12 [4-036] | 4 (Herbicidal rate of 70% or more and less than 90%) |  |  |  |  |  | 0 (Herbicidal rate of 5% or less (almost no effect)) | 5 (Herbicidal rate of 90% or more (almost completely withered)) | 5 (Herbicidal rate of 90% or more (almost completely withered)) |  |  |  |  |  |  |  | Herbicidal effect by soil treatment, F: southern crabgrass (southern crabgrass [3]): 4 (Herbicidal rate of 70% or more and less than 90%); Herbicidal effect by soil treatment, L: windgrass (windgrass [4]): 0 (Herbicidal rate of 5% or less (almost no effect)); Herbicidal effect by soil treatment, M: velvetleaf (velvetleaf): 2 (Herbicidal rate of 20% or more and less than 40%); Herbicidal effect by soil treatment, N: redroot pigweed (redroot pigweed): 4 (Herbicidal rate of 70% or more and less than 90%); Herbicidal effect by soil treatment, O: lambsquarters (lambsquarters [5]): 1 (Herbicidal rate of 5% or more and less than 20%); herbicidal effect on F: southern crabgrass (evaluation grade 0-5) (southern crabgrass [6]; [11]): 4 (Herbicidal rate of 70% or more and less than 90%); herbicidal effect on G: green foxtail (evaluation grade 0-5) (green foxtail; [11]): 5 (Herbicidal rate of 90% or more (almost completely withered)); herbicidal effect on H: barnyard grass (evaluation grade 0-5) (barnyard grass; [11]): 5 (Herbicidal rate of 90% or more (almost completely withered)); herbicidal effect on L: windgrass (evaluation grade 0-5) (windgrass [7]; [11]): 4 (Herbicidal rate of 70% or more and less than 90%); herbicidal effect on O: lambsquarters (evaluation grade 0-5) (lambsquarters [8]; [11]): 2 (Herbicidal rate of 20% or more and less than 40%); herbicidal effect on P: chickweed (evaluation grade 0-5) (chickweed; [11]): 5 (Herbicidal rate of 90% or more (almost completely withered)); herbicidal effect on R: persian speedwell (evaluation grade 0-5) (persian speedwell; [11]): 4 (Herbicidal rate of 70% or more and less than 90%)
CCCC(=O)Oc1c(CC)nn(C)c(=O)c1-c1c(-c2ccc(C(F)(F)F)cc2)sc2ccc(F)cc12 [2-411] | 0 (Herbicidal rate of 5% or less (almost no effect)) |  |  |  |  |  | 0 (Herbicidal rate of 5% or less (almost no effect)) |  |  | 3 (Herbicidal rate of 40% or more and less than 70%) | 3 (Herbicidal rate of 40% or more and less than 70%) | 3 (Herbicidal rate of 40% or more and less than 70%) | 0 (Herbicidal rate of 5% or less (almost no effect)) | 4 (Herbicidal rate of 70% or more and less than 90%) | 5 (Herbicidal rate of 90% or more (almost completely withered)) | 5 (Herbicidal rate of 90% or more (almost completely withered)) | herbicidal effect on D: Chinese sprangletop (Chinese sprangletop; [9]): 3 (Herbicidal rate of 40% or more and less than 70%); herbicidal effect on E: rice flat sedge (rice flat sedge; [9]): 3 (Herbicidal rate of 40% or more and less than 70%); herbicidal effect, F: southern crabgrass (southern crabgrass [3]): 0 (Herbicidal rate of 5% or less (almost no effect)); herbicidal effect, L: windgrass (windgrass [4]): 0 (Herbicidal rate of 5% or less (almost no effect)); herbicidal effect, M: velvetleaf (velvetleaf): 0 (Herbicidal rate of 5% or less (almost no effect)); herbicidal effect, N: redroot pigweed (redroot pigweed): 0 (Herbicidal rate of 5% or less (almost no effect)); herbicidal effect, O: lambsquarters (lambsquarters [5]): 0 (Herbicidal rate of 5% or less (almost no effect))
